Measured values reported in US12344600B2, “c-Myc mRNA translation modulators and uses thereof in the treatment of cancer” (Anima Biotech Inc., priority 2022, dated 2025).

system: c-Myc; experiment: c-Myc immunofluorescence assay; assay type: cell-based, human; conditions: A549 cells, 24 hours, anti-c-Myc immunofluorescence
How it was run: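 Read-out is imaged c-Myc immunofluorescence, nucleus-segmented, in A549 lung carcinoma cells exposed to compound dose series for 24 h after 48 h growth. Fixation 4% paraformaldehyde, Triton permeabilization, antibody staining at room temperature; EC50 from logistic fit of signal versus concentration.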

| SMILES | Myc Efficacy (−LogEC50) |
| --- | --- |
| COc1ccc(-c2noc(N3CCC(C(=O)NC[C@@H]4CCN(C[C@H]5CCCN(C)C5)C4)CC3)n2)cc1 [Compound 466, 1-(3-(4-methoxyphenyl)-1,2,4-oxadiazol-5-yl)-N-(((S)-1-(((S)-1-methylpiperidin-3-yl)methyl)pyrrolidin-3-yl)methyl)piperidine-4-carboxamide] | + (+ >3 and <5) |
| Cc1ccc(CN2CC(CNC(=O)N3CCN(c4nc(-c5ccc(C#N)cc5)no4)CC3)CC2=O)cc1 (centres unmarked) [Compound 268, 4-(3-(4-cyanophenyl)-1,2,4-oxadiazol-5-yl)-N-((1-(4-methylbenzyl)-5-oxopyrrolidin-3-yl)methyl)piperazine-1-carboxamide] | ++ (++ ≥5 and <6) |
| O=C(NCc1cccnc1)C1CCN(c2nc(-c3ccc(Cl)cc3)no2)CC1 [Compound 163, 1-(3-(4-chlorophenyl)-1,2,4-oxadiazol-5-yl)-N-(pyridin-3-ylmethyl)piperidine-4-carboxamide] | + (+ >3 and <5) |
| COc1ccc(-c2noc(N3CCC(C(=O)N4CCN(C)CC4)CC3)n2)cc1 [Compound 204, (1-(3-(4-methoxyphenyl)-1,2,4-oxadiazol-5-yl)piperidin-4-yl)(4-methylpiperazin-1-yl)methanone] | + (+ >3 and <5) |
| COc1ccc(-c2noc(N3CCC(C(=O)NCC4CCN(Cc5sccc5C)C4)CC3)n2)cc1 (centres unmarked) [Compound 381, 1-(3-(4-methoxyphenyl)-1,2,4-oxadiazol-5-yl)-N-((1-((3-methylthiophen-2-yl)methyl)pyrrolidin-3-yl)methyl)piperidine-4-carboxamide] | ++ (++ ≥5 and <6) |
| COc1ccc(-c2noc(N3CCC(C(=O)NCC4CCN(Cc5ncccc5F)C4)CC3)n2)cc1 (centres unmarked) [Compound 334, N-((1-((3-fluoropyridin-2-yl)methyl)pyrrolidin-3-yl)methyl)-1-(3-(4-methoxyphenyl)-1,2,4-oxadiazol-5-yl)piperidine-4-carboxamide] | + (+ >3 and <5) |
| COc1ccc(-c2noc(N3CCC(C(=O)NCC4CCN(CC5CCCNCC5)C4)CC3)n2)cc1 (centres unmarked) [Compound 391, N-((1-(azepan-4-ylmethyl)pyrrolidin-3-yl)methyl)-1-(3-(4-methoxyphenyl)-1,2,4-oxadiazol-5-yl)piperidine-4-carboxamide] | + (+ >3 and <5) |
| O=C(NCCCN1CCC(Oc2ccccc2)CC1)N1CCN(c2nc(-c3ccc(OC(F)(F)F)cc3)no2)CC1 [Compound 428, N-(3-(4-phenoxypiperidin-1-yl)propyl)-4-(3-(4-(trifluoromethoxy)phenyl)-1,2,4-oxadiazol-5-yl)piperazine-1-carboxamide] | +++ (+++ ≥6) |
| COc1cccc(-c2noc(N3CCC(C(=O)NCc4cccnc4)CC3)n2)c1 [Compound 180, 1-(3-(3-methoxyphenyl)-1,2,4-oxadiazol-5-yl)-N-(pyridin-3-ylmethyl)piperidine-4-carboxamide] | + (+ >3 and <5) |
| CC1CCCN(CCCNC(=O)C2CCN(c3nc(-c4ccc(Cl)cc4)no3)CC2)C1 (centres unmarked) [Compound 132, 1-(3-(4-chlorophenyl)-1,2,4-oxadiazol-5-yl)-N-(3-(3-methylpiperidin-1-yl)propyl)piperidine-4-carboxamide] | + (+ >3 and <5) |
| CC(=O)Nc1cccc(-c2noc(N3CCC(C(=O)NCC4CCN(Cc5ccc(C)cc5)C4)CC3)n2)c1 (centres unmarked) [Compound 230, 1-(3-(3-acetamidophenyl)-1,2,4-oxadiazol-5-yl)-N-((1-(4-methylbenzyl)pyrrolidin-3-yl)methyl)piperidine-4-carboxamide] | + (+ >3 and <5) |
| COc1ccc(-c2noc(N3CCC(C(=O)NCC4CCN(C5CC6(COC6)C5)C4)CC3)n2)cc1 (centres unmarked) [Compound 399, N-((1-(2-oxaspiro[3.3]heptan-6-yl)pyrrolidin-3-yl)methyl)-1-(3-(4-methoxyphenyl)-1,2,4-oxadiazol-5-yl)piperidine-4-carboxamide] | + (+ >3 and <5) |
| COc1ccc(-c2noc(CCC(=O)NCCCN3CCC(Cc4ccccc4)CC3)n2)cc1 [Compound 151, N-(3-(4-benzylpiperidin-1-yl)propyl)-3-(3-(4-methoxyphenyl)-1,2,4-oxadiazol-5-yl)propanamide] | ++ (++ ≥5 and <6) |
| COc1ccc(-c2noc(N3CCC(C(=O)N[C@H]4C[C@@H](OC)C4)CC3)n2)cc1 [Compound 256, N-((1s,3s)-3-methoxycyclobutyl)-1-(3-(4-methoxyphenyl)-1,2,4-oxadiazol-5-yl)piperidine-4-carboxamide] | + (+ >3 and <5) |
| COc1ccc(-c2noc(N3CCC(C(=O)NCCN4CCCC4(C)C)CC3)n2)cc1 [Compound 269, N-(2-(2,2-dimethylpyrrolidin-1-yl)ethyl)-1-(3-(4-methoxyphenyl)-1,2,4-oxadiazol-5-yl)piperidine-4-carboxamide] | + (+ >3 and <5) |
| COc1ccc(-c2noc(N3CCN(C(=O)NCC4CCN(c5ccccc5)C4)CC3)n2)cc1 (centres unmarked) [Compound 345, 4-(3-(4-methoxyphenyl)-1,2,4-oxadiazol-5-yl)-N-((1-phenylpyrrolidin-3-yl)methyl)piperazine-1-carboxamide] | + (+ >3 and <5) |

| SMILES | Myc Efficacy (−LogEC50) |
| --- | --- |
| COc1ccc(-c2noc(C3CCC(C(=O)NCC4CC(=O)N(C)C4)CC3)n2)cc1 (centres unmarked) [Compound 229, (1r,4r)-4-(3-(4-methoxyphenyl)-1,2,4-oxadiazol-5-yl)-N-((1-methyl-5-oxopyrrolidin-3-yl)methyl)cyclohexane-1-carboxamide] | + (+ >3 and <5) |
| COc1ccc(-c2noc(N3CCN(C(=O)N4CCC(C)CC4)CC3)n2)cc1 [Compound 145, (4-(3-(4-methoxyphenyl)-1,2,4-oxadiazol-5-yl)piperazin-1-yl)(4-methylpiperidin-1-yl)methanone] | + (+ >3 and <5) |
| O=C(NCc1cccnc1)C1CCN(c2nc(-c3ccc(O)cc3)no2)CC1 [Compound 178, 1-(3-(4-hydroxyphenyl)-1,2,4-oxadiazol-5-yl)-N-(pyridin-3-ylmethyl)piperidine-4-carboxamide] | + (+ >3 and <5) |
| CC[C@H](C)NC(=O)C1CCN(c2nc(-c3ccc(OC)cc3)no2)CC1 [Compound 279, (S)-N-(sec-butyl)-1-(3-(4-methoxyphenyl)-1,2,4-oxadiazol-5-yl)piperidine-4-carboxamide] | + (+ >3 and <5) |
| COc1ccc(-c2noc(N3CCC(C(=O)NCC4CCN(CC5=CCCCC5)C4)CC3)n2)cc1 (centres unmarked) [Compound 409, N-((1-(cyclohex-1-en-1-ylmethyl)pyrrolidin-3-yl)methyl)-1-(3-(4-methoxyphenyl)-1,2,4-oxadiazol-5-yl)piperidine-4-carboxamide] | ++ (++ ≥5 and <6) |
| Cc1ccc(CN2CCC(CNC(=O)C3CCN(c4nc(-c5ccc(OCCO)cc5)no4)CC3)C2)cc1 (centres unmarked) [Compound 463, 1-(3-(4-(2-hydroxyethoxy)phenyl)-1,2,4-oxadiazol-5-yl)-N-((1-(4-methylbenzyl)pyrrolidin-3-yl)methyl)piperidine-4-carboxamide] | + (+ >3 and <5) |
| CNC(=O)N1CCN(c2nc(-c3ccc(OC)cc3)no2)CC1 [Compound 191, 4-(3-(4-methoxyphenyl)-1,2,4-oxadiazol-5-yl)-N-methylpiperazine-1-carboxamide] | + (+ >3 and <5) |
| COc1ccc(-c2noc(N3CCC(C(=O)NCC4CCN(Cc5nc(C)cs5)C4)CC3)n2)cc1 (centres unmarked) [Compound 384, 1-(3-(4-methoxyphenyl)-1,2,4-oxadiazol-5-yl)-N-((1-((4-methylthiazol-2-yl)methyl)pyrrolidin-3-yl)methyl)piperidine-4-carboxamide] | ++ (++ ≥5 and <6) |
| COc1ccc(-c2noc(N3CCC(C(=O)NCc4cccc(Cl)c4)CC3)n2)cc1 [Compound 122, N-(3-chlorobenzyl)-1-(3-(4-methoxyphenyl)-1,2,4-oxadiazol-5-yl)piperidine-4-carboxamide] | + (+ >3 and <5) |
| COc1ccc(-c2noc([C@H]3CC[C@H](C(=O)O)CC3)n2)cc1 [Compound 175, (1r,4r)-4-(3-(4-methoxyphenyl)-1,2,4-oxadiazol-5-yl)cyclohexane-1-carboxylic acid] | + (+ >3 and <5) |
| COc1ccc(-c2noc(N3CCC(C(=O)NCC4CCN(C5CCOCC5)C4)CC3)n2)cc1 (centres unmarked) [Compound 398, 1-(3-(4-methoxyphenyl)-1,2,4-oxadiazol-5-yl)-N-((1-(tetrahydro-2H-pyran-4-yl)pyrrolidin-3-yl)methyl)piperidine-4-carboxamide] | + (+ >3 and <5) |
| COc1ccc(-c2noc(N3CCC(C(=O)NCc4cnc(C(F)(F)F)s4)CC3)n2)cc1 [Compound 318, 1-(3-(4-methoxyphenyl)-1,2,4-oxadiazol-5-yl)-N-((2-(trifluoromethyl)thiazol-5-yl)methyl)piperidine-4-carboxamide] | + (+ >3 and <5) |
| COc1ccc(-c2noc(N3CCC(C(=O)NCC4(N(C)C)CCCCC4)CC3)n2)cc1 [Compound 249, N-((1-(dimethylamino)cyclohexyl)methyl)-1-(3-(4-methoxyphenyl)-1,2,4-oxadiazol-5-yl)piperidine-4-carboxamide] | + (+ >3 and <5) |
| COc1ccc(-c2noc(N3CCC(C(=O)NC4CCC5(CCOCC5)CC4)CC3)n2)cc1 [Compound 312, 1-(3-(4-methoxyphenyl)-1,2,4-oxadiazol-5-yl)-N-(3-oxaspiro[5.5]undecan-9-yl)piperidine-4-carboxamide] | + (+ >3 and <5) |
| COc1ccc(-c2noc(N3CCC(C(=O)NCC4CCN(C5CCOC(C)C5)C4)CC3)n2)cc1 (centres unmarked) [Compound 402, 1-(3-(4-methoxyphenyl)-1,2,4-oxadiazol-5-yl)-N-((1-(2-methyltetrahydro-2H-pyran-4-yl)pyrrolidin-3-yl)methyl)piperidine-4-carboxamide] | + (+ >3 and <5) |
| CCCN1CCN(C(=O)C2CCN(c3nc(-c4ccc(OC)cc4)no3)CC2)CC1 [Compound 104, (1-(3-(4-methoxyphenyl)-1,2,4-oxadiazol-5-yl)piperidin-4-yl)(4-propylpiperazin-1-yl)methanone] | + (+ >3 and <5) |
